Experimental data published in patent US20100234417A1, “THYROTROPIN RELEASING HORMONE RECEPTOR-OREXIN RECEPTOR HETERO-DIMERS/-OLIGOMERS” (DIMERIX BIOSCIENCE PTY LTD., priority 2006, published 2010).
Ends that are not written are not given here.

Columns and labels:
Type in all cases: cell-based
[1] = system: thyrotropin releasing hormone receptor/orexin receptor hetero-dimer/-oligomer (OxR2 with HA-TRHR); assay: eBRET: OxR2/Rluc8 + barr2/Venus + HA-TRHR as IG3; conditions: FIG. 18
Method: (§1) Briefly, referring to FIGS. 1 to 3, the IGs are provided in the form of the two receptors (TRHR and OxR). One of the two is attached to an RC (IG1-RC1, IG3). A second IG (IG2-RC2) is derived from a molecule that interacts with the receptors upon ligand binding (e.g. beta-arrestin, or a mutant thereof).
Cells were seeded in 6-well plates at a density of approximately 630,000 cells/well (HEK293FT) or approximately 150,000 cells/well (COS-7) and maintained at 37° C., 5% CO2 in Complete Media (DMEM containing 0.3 mg/ml glutamine, 100 IU/ml penicillin and 100 μg/ml streptomycin (Gibco)) supplemented with 10% fetal calf serum (FCS; Gibco). […] Filtered light emissions were sequentially measured for 3-5 s in each of the ‘donor wavelength window’ (400-475 nm) and ‘acceptor wavelength window’ (>500 nm for EGFP or 520-540 nm for EYFP, Topaz (TYFP) or Venus). […] In this case, data are shown as ‘fluorescence/luminescence’ being the ratio of light emission through the ‘acceptor wavelength window’ over the 400-475 nm emission for a particular cell sample. Unless otherwise stated, BRET signals were measured in 96-well microplates.
Referring now to FIG. 18, eBRET signals were measured from cells transiently co-expressing OxR2/Rluc8 and barr2/Venus either with HA-TRHR or pcDNA3.

TRHR335 with TRHR = assay: eBRET: TRHR335/Rluc + EGFP/barr1 + TRHR as IG3; conditions: FIG. 9
Excerpt: as §1, with “thereof). The detection system not only detects the formation of the TRHR-OxR heterodimer but can distinguish whether a ligand or drug acts as an agonist, partial agonist, antagonist, inverse agonist or partial inverse agonist at the receptor hetero-dimer.” for “thereof).”
Cells were seeded in 6-well plates at a density of approximately 630,000 cells/well (HEK293FT) or approximately 150,000 cells/well (COS-7) and maintained at 37° C., 5% CO2 in Complete Media (DMEM containing 0.3 mg/ml glutamine, 100 IU/ml penicillin and 100 μg/ml streptomycin (Gibco)) supplemented with 10% fetal calf serum (FCS; Gibco). […] BRET measurements were taken at 37° C. using the Victor Light plate reader with Wallac 1420 software (Perkin-Elmer). Filtered light emissions were sequentially measured for 3-5 s in each of the ‘donor wavelength window’ (400-475 nm) and ‘acceptor wavelength window’ (>500 nm for EGFP or 520-540 nm for EYFP, Topaz (TYFP) or Venus). […] Unless otherwise stated, BRET signals were measured in 96-well microplates. […]

[2] = system: thyrotropin releasing hormone receptor/orexin receptor hetero-dimer/-oligomer (TRHR with OxR1); assay: eBRET: TRHR/Rluc + barr2/Venus + OxR1 as IG3 in HEK293 cells; conditions: TRHR/Rluc + barr2/Venus + OxR1; 10^−6M OxA; FIG. 6
Method: as §1
Cells were seeded in 6-well plates at a density of approximately 630,000 cells/well (HEK293FT) or approximately 150,000 cells/well (COS-7) and maintained at 37° C., 5% CO2 in Complete Media (DMEM containing 0.3 mg/ml glutamine, 100 IU/ml penicillin and 100 μg/ml streptomycin (Gibco)) supplemented with 10% fetal calf serum (FCS; Gibco). Transient transfections were carried out 24 h after seeding using GeneJuice (Novagen) or Metafectene (Biontex) according to manufacturer instructions. 24 h post-transfection, cells were washed with PBS, detached using 0.05% trypsin/0.53 mM EDTA, resuspended in HEPES-buffered phenol red free Complete Media containing 5% FCS and added to a poly-L-lysine-coated white microplate (Nunc). 48 h post-transfection, eBRET assays were carried out following pre-incubation of cells with EnduRen™ (Promega) at a final concentration of 30-40 μM, at 37° C., 5% CO2 for 2 h. For original BRET studies, the HEPES-buffered phenol red free Complete Media was replaced with PBS and coelenterazine h (Molecular Probes) added to a final concentration of 5 μM immediately prior to commencing the assay. […] Filtered light emissions were sequentially measured for 3-5 s in each of the ‘donor wavelength window’ (400-475 nm) and ‘acceptor wavelength window’ (>500 nm for EGFP or 520-540 nm for EYFP, Topaz (TYFP) or Venus). The BRET signal observed between interacting proteins is normalized by subtracting the background BRET ratio. […] In this case, data are shown as ‘fluorescence/luminescence’ being the ratio of light emission through the ‘acceptor wavelength window’ over the 400-475 nm emission for a particular cell sample. Unless otherwise stated, BRET signals were measured in 96-well microplates. […]

eBRET signal reached (ligand-induced BRET ratio) ([1]; gradual increase over time) | time to eBRET signal peak [1] | Molecule | eBRET signal (TRHR335 with TRHR) | eBRET signal [2]
0.05 | – | NC(=O)[C@@H]1CCCN1C(=O)[C@H](Cc1cnc[nH]1)NC(=O)[C@@H]1CCC(=O)N1 [TRH, pGlu-His-Pro-NH2] | – | –
– | ≤ 5 min | OxA: orexin A; known orexin receptor modulator, used as IG3 ligand (modulator) (QPLPDCCRQKTCSCRLYELLHGAGNHAAGILTL; ends and bridges not checked; cysteine pairing not given here; UniProt O43612 34-66, looked up) | no eBRET signal above baseline | small eBRET signal
